This is an account of results in patent publication EP0652009A1, “Identification and use of protease inhibitors” (ELI LILLY AND COMPANY, priority 1993, dated 1995).

SMILES strings stand for the structures.

The first assay deals with Cathepsin D (Homo sapiens, UniProt P07339). Briefly: Assay 3: cathepsin D inhibition activity (non-cellular assay, chromogenic substrate). In kind it is biochemical. Details: Frozen human placental tissue was thawed and homogenized; from tissue; host or cells: human placenta. The note with it: 4 µM test compound; inhibition of initial rate relative to control; cathepsin D from human placental tissue; read-out: % inhibition at 4µ M. How it is done: A third non-cellular assay for determining in vitro aspartyl protease inhibitory activity is generally described in Jupp, R.A. et al., (1990) Biochem. J., 265:871-878 and Rao et al., J. Med. Chem. (1993), in press. The assay is carried out by incubating a test compound with a suitable aspartyl protease, such as cathepsin D, in the presence of a chromogenic substrate. The inhibition constant, Ki, value may then be determined by quantifying the competitive inhibition of the hydrolysis of the chromogenic substrate. A variety of chromogenic substrates that are useful for assaying aspartyl protease activity are discussed in Dunn, et al., (1986) Biochem. J., 237:899-906. A preferred chromogenic substrate for a cathepsin D assay is disclosed in Scarborough, P.E. et al., Protein Science, (1993), 2:264-276.
Sequence of Cathepsin D (P07339 169-412 limits assumed): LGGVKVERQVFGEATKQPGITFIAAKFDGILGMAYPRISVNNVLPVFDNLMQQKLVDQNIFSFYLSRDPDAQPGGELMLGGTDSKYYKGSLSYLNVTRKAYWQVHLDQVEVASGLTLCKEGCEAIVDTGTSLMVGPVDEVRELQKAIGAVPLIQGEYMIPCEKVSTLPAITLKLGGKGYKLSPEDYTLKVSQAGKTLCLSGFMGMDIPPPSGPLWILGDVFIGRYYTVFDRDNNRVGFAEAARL
Sequence of Cathepsin D (P07339 65-162 limits assumed): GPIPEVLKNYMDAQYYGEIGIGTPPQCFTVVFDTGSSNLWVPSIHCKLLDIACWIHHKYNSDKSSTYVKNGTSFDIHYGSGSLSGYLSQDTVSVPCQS
Concentrations of substrate solutions and cleavage products may be verified using amino acid analysis. The enzyme preparations may be titrated with a tightly binding inhibitor to quantitate the active concentration of the enzyme. Enzyme concentrations are typically in the range of from 1-6 nM. Stock solutions of the test compound are prepared at concentrations ranging from 1.0 to 5.0 mg/mL, and then 50-100 µL portions of these stock solutions may be further diluted to a concentration in the range of 5 to 300 µM for rate determinations.
[…] Then, the test compounds are assayed over a concentration range of, for example, 5 to 300 µM for rate determinations.
A decrease in absorbance in the range of 284-324 nm may be monitored using a spectrophotometer. Absorbance readings are typically taken at various timepoints. The initial velocities are then plotted versus the initial substrate concentration. […] Estimates of Ki may then be determined using the Dixon construction. Dixon, M., (1953) Biochem J., 55:170-171.
If the ratio of the total active enzyme concentration to the estimated Ki value ([E]t/Ki) is less than 0.2, then the precise Ki value may be computed by using a non-linear curve fitting program based on the equation: v= Vmax [S]/[S] + Km (1 + [I]/Ki ) [formula] where v is the initial rate, [S] is the initial substrate concentration, [I] is the inhibitor concentration and Km and Ki are defined above. […] P.J.F., (1972) Biochem J., 127:321-333. This Assay is exemplfied in Assay 3.
The homogenate was centrifuged at 10,000 rpm for 30 minutes in a Sorvall GSA rotor. The supernatant was adjusted to pH 3.7 using 5.7N HCl and then sodium acetate was added to a concentration of 0.1M. The resultant mixture was incubated for 30 minutes at 0°C, resulting in the formation of a precipitate. This precipitate was removed by centrifugation (30 minutes, 10,000 rpm). The acidic supernatent was applied to a chromatography column (pepstatinyl agarose equilibrated with 0.1M sodium acetate, pH 3.5, 0.1% Brij 35, and 1M NaCl), washed until the OD₂₈₀ of the effluent returned to baseline, and then eluted with 50mM Tris-HCl, pH 8.6, 0.1% Brij 35, and 1M NaCl. The eluent was dialyzed against 10mM sodium phosphate, pH 7.0, 0.1% Brij 35, and 0.1M NaCl, and then applied to a 1 mL DEAE-Sephacel column equilibrated with the same buffer. Cathepsin D was recovered in the breakthrough fraction.
The enzyme mixture (125 µL buffer (0.1M sodium formate at pH 3.7), 1 µL of a 1mM solution of test compound, 4 µL of DMSO, enzyme and water to provide a total volume of 230 µL) was vortexed and prewarmed for four minutes before the addition of the chromogenic substrate. After warming, the enzyme mixture was added to 20 µL of a […] dilution of substrate solution. A control reaction mixture was similarly prepared without the addition of the test compound. The percent of inhibition of the initial rate of reaction in the presence of a particular concentration of test compound (i.e. 4 µM) may be determined for the test compound by monitoring the reaction mixture in parallel to the control reaction. […]
In the case of `CC[C@H](C)[C@H](NC(=O)OCc1ccc2ccccc2n1)C(=O)N[C@@H](Cc1ccccc1)[C@@H]1O[C@@H]1[C@H](Cc1ccccc1)NC(=O)[C@@H](NC(=O)OCc1ccc2ccccc2n1)[C@@H](C)CC` [Example 3, 1,6-Diphenyl-2(S);5(S)-di[N-[2(S)-N[(quinolin-2-ylmethoxy)carbonyl]amino-3(S)-methylpentanoyl]amino]-3,4-cis-epoxyhexane], the inhibition at 4 µM came out at 40%.

With `CC(C)(C)NC(=O)c1sccc1C[C@@H](O)[C@H](Cc1ccccc1)NC(=O)[C@H](CC(N)=O)NC(=O)c1ccc2ccccc2n1` [Example 14, [1S-(1R*,4R*,5S*)]-N-(1-(2-Amino-2-oxoethyl)-2-oxo-3-aza-4-phenylmethyl-5-hydroxy-6-(2-(1-t-butylamino-1-oxomethyl)thien-3-yl)hexyl)-2-quinolinyl carboxamide], the inhibition at 4 µM was found to be 22%.

Take `CC(C)(C)NC(=O)c1ccccc1C[C@@H](O)[C@H](Cc1ccccc1)NC(=O)[C@H](CC(=O)O)NC(=O)c1ccc2ccccc2n1` [Example 15, [1S-(1R*,R*,5S*)]-N-(1-(2-Hydroxy-2-oxoethyl)-2-oxo-3-aza-4-phenylmethyl-5-hydroxy-6-(2-(1-t-butylamino-1-oxomethyl)phenyl)hexyl)-2-quinolinyl carboxamide]: the inhibition at 4 µM amounted to 49%.

Take `CC(C)(C)NC(=O)c1ccccc1C[C@@H](O)[C@H](Cc1ccccc1)NC(=O)[C@H](CC(=O)NCc1ccccn1)NC(=O)c1ccc2ccccc2n1` [Example 16, [1S-(1R*,4R*,5S*)]-N-(1-(2-(N-2-Pyridylmethyl)amino)-2-oxoethyl]-2-oxo-3-aza-4-phenylmethyl-5-hydroxy-6-(2-(1-t-butylamino-1-oxomethyl)phenyl)hexyl)-2-quinolinyl carboxamide]: the inhibition at 4 µM came out at 36%.

As to `CC(C)(C)NC(=O)c1ccccc1C[C@@H](O)[C@H](Cc1ccccc1)NC(=O)[C@H](CC(N)=O)NC(=O)c1cc(Cl)c2ccccc2n1` [Example 19, [1S-(1R*,4R*,5S*)]-N-(1-(2-Amino-2-oxoethyl)-2-oxo-3-aza-4-phenylmethyl-5-hydroxy-6-(2-(1-t-butylamino-1-oxomethyl)phenyl)hexyl)-4-chloroquinolin-2-yl carboxamide], the inhibition at 4 µM stood at 48%.

The assay is the same for the next values; noted with them: cathepsin D from human placental tissue, chromogenic substrate, pH 3.7, 37°C.
`CC(C)C(NC(=O)OCc1ccccc1)C(=O)NC(Cc1ccccc1)C1OC1C(Cc1ccccc1)NC(=O)C(NC(=O)OCc1ccccc1)C(C)C` [Example 1, 1,6-Diphenyl-2(S);5(S)-di[N-[2(S)-N(benzyloxycarbonyl)amino-3-methyl-butanoyl]amino]-3,4-cis-epoxyhexane] came in with a Ki of 1160 ± 260 nM.

`CC[C@H](NC(=O)OCc1ccccc1)C(=O)N[C@@H](Cc1ccccc1)[C@@H]1O[C@@H]1[C@H](Cc1ccccc1)NC(=O)[C@H](CC)NC(=O)OCc1ccccc1` [Example 2, 1,6-Diphenyl-2(S);5(S)-di[N-[2(S)-N(benzyloxycarbonyl)aminobutanoyl]amino]-3,4-cis-epoxyhexane] returned a Ki of 750 ± 140 nM.

For `CCC(NC(=O)N(C)Cc1ccc2ccccc2n1)C(=O)NC(Cc1ccccc1)C1OC1C(Cc1ccccc1)NC(=O)C(CC)NC(=O)N(C)Cc1ccc2ccccc2n1` [Example 4, 1,6-Diphenyl-2(S);5(S)-di[N-[2(S)-N-[[N(methyl)-N(quinolin-2-ylmethyl)amino]carbonyl]aminobutanoyl]amino]-3,4-cis-epoxyhexane], the Ki was determined as 6200 nM.

`CCC(C)C(NC(=O)N(C)Cc1ccc2ccccc2n1)C(=O)NC(Cc1ccccc1)C1OC1C(Cc1ccccc1)NC(=O)C(NC(=O)N(C)Cc1ccc2ccccc2n1)C(C)CC` [Example 5, 1,6-Diphenyl-2(S);5(S)-di[N-[2(S)-N[[N(methyl)-N(quinolin-2-ylmethyl)amino]carbonyl]amino-3(S)-methylpentanoyl]amino]-3,4-cis-epoxyhexane] came in with a Ki of 240 nM.

`CC(C)(C)NC(=O)c1ccccc1CC(O)C(Cc1ccccc1)NC(=O)C(CC(N)=O)NC(=O)c1ccc2ccccc2n1` (stereo not drawn) [Example 6, [1S-(1R*,4R*,5S*)]-N-[1-(2-amino-2-oxoethyl)-2-oxo-3-aza-4-phenylmethyl-5-hydroxy-6-(2-(1-t-butylamino-1-oxomethyl)phenyl)hexyl]-2-quinolinyl carboxamide] yielded a Ki of 1800 ± 260 nM.

For the molecule `Cc1ccc(CC(O)C(Cc2ccccc2)NC(=O)C(CC(N)=O)NC(=O)c2ccc3ccccc3n2)c(C(=O)NC(C)(C)C)c1` (stereo not drawn) [Example 7, [1S-(1R*,4R*,5S*)]-N-[1-(2-Amino-2-oxoethyl)-2-oxo-3-aza-4-phenylmethyl-5-hydroxy-6-(2-(1-t-butylamino-1-oxomethyl)-4-methylphenyl)hexyl]-2-quinolinyl carboxamide], the Ki was determined as 420 ± 60 nM.

`Cc1ccc2ccc(C(=O)N[C@@H](CC(N)=O)C(=O)N[C@@H](Cc3ccccc3)[C@H](O)Cc3ccccc3C(=O)NC(C)(C)C)nc2c1` [Example 8, [lS-(1R*,4R*,5S*)]-N-(1-(2-amino-2-oxoethyl)-2-oxo-3-aza-4-phenylmethyl-5-hydroxy-6-(2-(1-t-butylamino-1-oxomethyl)phenyl)hexyl)-7-methylquinolin-2-yl carboxamide] displayed a Ki of 1170 nM.

For `Cc1cc(C(=O)N[C@@H](CC(N)=O)C(=O)N[C@@H](Cc2ccccc2)[C@H](O)Cc2ccccc2C(=O)NC(C)(C)C)nc2ccccc12` [Example 10, [1S-(1R*,4R*,5S*)]-N-(1-(2-Amino-2-oxoethyl)-2-oxo-3-aza-4-phenylmethyl-5-hydroxy-6-(2-(1-t-butylamino-1-oxomethyl)phenyl)hexyl)-4-methylquinolin-2-yl carboxamide], the affinity, expressed as Ki, was 5510 nM.

Molecule `CC(C)(C)NC(=O)c1ccccc1CC(O)C(Cc1ccccc1)NC(=O)C(CC(=O)NCc1ncc[nH]1)NC(=O)c1ccc2ccccc2n1` (stereo not drawn) [Example 17, [1S-(1R*,4R*,5S*)]-N-(1-(2-(N-2-Imidazolylmethyl)amino)-2-oxoethyl)-2-oxo-3-aza-4-phenylmethyl-5-hydroxy-6-(2-(1-t-butylamino-1-oxomethyl)phenyl)hexyl)-2-quinolinyl carboxamide] returned a Ki of 2300 ± 200 nM.

Molecule `CC(C)(C)NC(=O)c1ccccc1C[C@@H](O)[C@H](Cc1ccccc1)NC(=O)[C@H](CC(=O)NCc1nc2ccccc2[nH]1)NC(=O)c1ccc2ccccc2n1` [Example 18, [1S-(1R*,4R*,5S*)]-N-(1-(2-(N-2-Benzimidazolylmethyl)amino)-2-oxoethyl)-2-oxo-3-aza-4-phenylmethyl-5-hydroxy-6-(2-(1-t-butylamino-1-oxomethyl)phenyl)hexyl)-2-quinolinyl carboxamide] displayed a Ki of 2200 ± 200 nM.

The molecule `CC(C)(C)NC(=O)c1ccccc1CC(O)C(Cc1ccccc1)NC(=O)C(CC(N)=O)NC(=O)c1ccc2cccc(C(F)(F)F)c2n1` (stereo not drawn) [Example 22, [1S-(1R*,4R*,5S*)]-N-(1-(2-Amino-2-oxoethyl)-2-oxo-3-aza-4-phenylmethyl-5-hydroxy-6-(2-(1-t-butylamino-1-oxomethyl)phenyl)hexyl)-8-trifluoromethyl-quinolin-2-yl carboxamide] had a Ki of 900 ± 100 nM.

Turning to `CC(C)(C)NC(=O)c1ccccc1CC(O)C(Cc1ccccc1)NC(=O)C(CC(N)=O)NC(=O)C(Cc1cccc2ccccc12)NC(=O)OC(C)(C)C` (stereo not drawn) [Example 25, [2R-(2R*,3S*,6S*,9R*)]-N-t-Butyl-2-[2-hydroxy-3-phenylmethyl-4,7-diaza-5,8-dioxo-6-(2-amino-2-oxoethyl)-9-N(t-butoxycarbonyl)amino-10-naphth-1-yl]decyl benzamide], the Ki amounted to 1440 ± 260 nM.

One may read the inhibition as the drop in the measured response relative to a control, in per cent. By Ki is commonly meant a dissociation constant, usually derived from enzyme kinetics or from competition with a known ligand. Read a low Ki as a stronger hold on the target.
